Results from ChEMBL document CHEMBL1146126 (Bioorg Med Chem Lett, 2006).

Experiments:
[1] = target: T1, Prostaglandin E2 receptor EP4 subtype (Rattus norvegicus, UniProt P43114); assay: Binding affinity to rat EP4 receptor expressed in HEK293 cells; assay type: cell-based
[2] = target: Prostaglandin E2 receptor EP4 subtype (Rattus norvegicus) (UniProt P43114); assay: Activity at rat EP4 transfected in HEK293 cells by cAMP accumulation compared to PGE2; assay type: functional, cell-based
[3] = target: Prostaglandin E2 receptor EP2 subtype (Rattus norvegicus, UniProt Q62928); assay: Binding affinity to rat EP2 receptor expressed in HEK293 cells; assay type: cell-based
[4] = target: T1, Prostaglandin E2 receptor EP4 subtype; assay: Activity at rat EP4 transfected in HEK293 cells by cAMP accumulation; assay type: functional, cell-based
[5] = target: T2, Prostaglandin E2 receptor EP1 subtype (Homo sapiens, UniProt P34995); assay: Binding affinity to human EP1 receptor expressed in HEK293 cells; assay type: cell-based
T2 sequence (P34995 whole entry): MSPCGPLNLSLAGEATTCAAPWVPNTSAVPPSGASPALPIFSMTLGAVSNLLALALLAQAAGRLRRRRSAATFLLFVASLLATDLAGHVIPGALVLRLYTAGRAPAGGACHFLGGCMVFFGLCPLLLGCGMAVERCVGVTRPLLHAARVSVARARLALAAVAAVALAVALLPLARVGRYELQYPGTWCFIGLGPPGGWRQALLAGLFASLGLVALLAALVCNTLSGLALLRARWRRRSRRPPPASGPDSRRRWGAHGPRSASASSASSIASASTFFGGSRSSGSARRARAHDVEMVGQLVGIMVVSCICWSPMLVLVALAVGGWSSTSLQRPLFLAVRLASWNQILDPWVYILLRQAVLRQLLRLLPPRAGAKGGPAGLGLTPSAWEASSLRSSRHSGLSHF

[6] = target: T3, Prostaglandin E2 receptor EP3 subtype (Homo sapiens, UniProt P43115); assay: Binding affinity to human EP3 receptor expressed in HEK293 cells; assay type: cell-based
T3 sequence (P43115 whole entry): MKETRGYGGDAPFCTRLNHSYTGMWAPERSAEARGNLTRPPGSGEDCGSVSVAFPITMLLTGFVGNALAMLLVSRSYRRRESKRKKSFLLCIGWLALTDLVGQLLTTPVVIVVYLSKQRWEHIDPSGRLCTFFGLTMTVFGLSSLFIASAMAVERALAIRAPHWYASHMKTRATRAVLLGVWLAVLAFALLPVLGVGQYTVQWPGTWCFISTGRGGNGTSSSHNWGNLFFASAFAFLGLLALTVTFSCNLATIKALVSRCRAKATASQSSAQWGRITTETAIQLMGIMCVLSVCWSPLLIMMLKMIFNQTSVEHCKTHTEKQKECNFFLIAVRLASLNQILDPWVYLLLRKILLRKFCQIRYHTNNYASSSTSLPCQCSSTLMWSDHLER

Rattus norvegicus [7] = assay: Increase in cortical area at 30 mg/kg, sc 28 days post dose in ovariectomized osteopenic rat; assay type: functional; conditions: route subcutaneous
Rattus norvegicus [8] = assay: Increase in total bone density at 10 mg/kg, sc 28 days post dose in ovariectomized osteopenic rat; assay type: functional; conditions: route subcutaneous
Rattus norvegicus [9] = assay: Increase in cortical content at 30 mg/kg, sc 28 days post dose in ovariectomized osteopenic rat; assay type: functional; conditions: route subcutaneous
Rattus norvegicus [10] = assay: Increase in total bone content at 30 mg/kg, sc 28 days post dose in ovariectomized osteopenic rat; assay type: functional; conditions: route subcutaneous
Rattus norvegicus [11] = assay: Increase in cortical thickness at 10 mg/kg, sc 28 days post dose in ovariectomized osteopenic rat; assay type: functional; conditions: route subcutaneous
Rattus norvegicus [12] = assay: Increase in total bone content at 10 mg/kg, sc 28 days post dose in ovariectomized osteopenic rat; assay type: functional; conditions: route subcutaneous
Rattus norvegicus [13] = assay: Increase in cortical area at 10 mg/kg, sc 28 days post dose in ovariectomized osteopenic rat; assay type: functional; conditions: route subcutaneous
[14] = Half life in sc dosed Sprague-Dawley rat; assay type: ADME, organism-based; conditions: in vivo
[15] = Half life in iv dosed Sprague-Dawley rat; assay type: ADME, organism-based; conditions: in vivo
Rattus norvegicus [16] = assay: Increase in total bone density at 30 mg/kg, sc 28 days post dose in ovariectomized osteopenic rat; assay type: functional; conditions: route subcutaneous
[17] = Plasma clearance in iv dosed Sprague-Dawley rat
[18] = Half life in po dosed Sprague-Dawley rat; assay type: ADME, organism-based; conditions: in vivo
[19] = Oral bioavailability in Sprague-Dawley rat; assay type: ADME, organism-based; conditions: in vivo
Rattus norvegicus [20] = assay: Increase in cortical thickness at 30 mg/kg, sc 28 days post dose in ovariectomized osteopenic rat; assay type: functional; conditions: route subcutaneous
Rattus norvegicus [21] = assay: Volume distribution in sc dosed Sprague-Dawley rat; assay type: ADME, organism-based; conditions: in vivo
Rattus norvegicus [22] = assay: Increase in cortical content at 10 mg/kg, sc 28 days post dose in ovariectomized osteopenic rat; assay type: functional; conditions: route subcutaneous

Prostaglandin E2 receptor EP2 subtype, sequence (Q62928 whole entry): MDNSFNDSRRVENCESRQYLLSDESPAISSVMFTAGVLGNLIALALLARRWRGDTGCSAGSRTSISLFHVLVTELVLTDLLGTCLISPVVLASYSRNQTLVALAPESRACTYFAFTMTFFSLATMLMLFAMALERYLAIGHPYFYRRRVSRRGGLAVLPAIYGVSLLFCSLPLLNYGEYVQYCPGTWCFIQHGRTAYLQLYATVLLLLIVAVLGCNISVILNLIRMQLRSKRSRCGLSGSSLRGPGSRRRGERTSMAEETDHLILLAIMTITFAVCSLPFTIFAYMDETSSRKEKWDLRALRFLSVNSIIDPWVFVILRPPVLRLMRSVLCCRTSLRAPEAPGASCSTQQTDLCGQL
Prostaglandin E2 receptor EP4 subtype (Rattus norvegicus), sequence (P43114 whole entry): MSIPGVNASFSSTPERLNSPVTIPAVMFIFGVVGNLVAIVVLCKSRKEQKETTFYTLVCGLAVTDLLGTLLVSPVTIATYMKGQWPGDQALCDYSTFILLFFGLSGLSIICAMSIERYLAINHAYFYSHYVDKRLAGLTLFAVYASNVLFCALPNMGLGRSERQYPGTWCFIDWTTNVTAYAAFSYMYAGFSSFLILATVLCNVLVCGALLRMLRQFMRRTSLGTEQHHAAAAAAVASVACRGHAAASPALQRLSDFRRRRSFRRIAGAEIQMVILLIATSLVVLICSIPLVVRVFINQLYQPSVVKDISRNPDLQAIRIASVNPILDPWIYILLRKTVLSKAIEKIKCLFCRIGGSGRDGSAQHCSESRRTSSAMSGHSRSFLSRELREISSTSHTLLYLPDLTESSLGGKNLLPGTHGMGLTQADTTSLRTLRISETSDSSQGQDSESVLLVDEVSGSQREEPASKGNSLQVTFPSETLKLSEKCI
T1 sequence (P43114 whole entry): as above

| SMILES | IC50 [1] [µM] | Activity [2] [%] | IC50 [3] [µM] | EC50 [4] [µM] | further results |
| --- | --- | --- | --- | --- | --- |
| O=C(O)CCCCCCN1C(=O)CC[C@@H]1CC[C@@H](O)Cc1cccc(O)c1 | 1.2 | 100 | > 3.2 | 0.17 |  |
| O=C(O)CCCCCCN1C(=O)CC[C@@H]1CC[C@@H](O)CCc1ccccc1 | 2.71 |  | > 3.2 |  |  |
| O=C(O)CCCCCCN1C(=O)CCC1CCC(O)CCc1ccccc1 (stereo not given) | > 3.2 |  | > 3.2 |  |  |
| O=C(O)c1ccc(CCCN2C(=O)CC[C@@H]2CC[C@@H](O)Cc2ccc(F)cc2)s1 | 0.07 | 70 | 1.2 | 0.022 |  |
| N#Cc1cccc(C[C@H](O)CC[C@H]2CCC(=O)N2CCCCCCC(=O)O)c1 | 0.388 | 104 | > 3.2 | 0.096 |  |
| O=C(O)c1ccc(CCCN2C(=O)CCC2CCC(O)Cc2cccc(Cl)c2)cc1 (stereo not given) | 0.042 | 106 | > 3.2 | 0.425 | IC50 [5]: > 3.2 µM; IC50 [6]: > 3.2 µM |
| O=C(O)CCCCCCN1C(=O)CC[C@@H]1CCC(O)Cc1cccc(Oc2ccccc2)c1 (stereo not given in full) |  |  | > 3.2 |  | IC50 [5]: > 3.2 µM; IC50 [6]: > 3.2 µM |
| O=C(O)c1ccc(CCCN2C(=O)CC[C@@H]2CC[C@@H](O)Cc2cccc(C(F)(F)F)c2)cc1 | 0.07 | 105 | > 3.2 | 0.105 |  |
| O=C(O)c1ccc(CCCN2C(=O)CC[C@@H]2CCC(O)Cc2ccccc2)s1 (stereo not given in full) | 0.021 | 88 | 0.69 | 0.0017 |  |
| O=C(O)c1ccc(CCCN2C(=O)CC[C@@H]2CCC(O)Cc2ccccc2-c2ccccc2)s1 (stereo not given in full) | 1.6 |  | 0.125 |  |  |
| O=C(O)c1ccc(CCCN2C(=O)CC[C@@H]2CC[C@@H](O)Cc2cccc(Cl)c2)s1 | 0.0011 | 70 | 0.188 | 0.0006 |  |
| O=C(O)CCCCCCN1C(=O)CCC1CCC(O)Cc1cccc(Cl)c1 (stereo not given) | 0.022 | 89 | > 3.2 | 0.0088 |  |
| O=C(O)CCCCCCN1C(=O)CC[C@@H]1CC[C@@H](O)Cc1cccc(OC(F)(F)F)c1 | 0.059 | 78 | > 3.2 | 0.05 |  |
| O=C(O)CCCCCCN1C(=O)CC[C@@H]1CC[C@@H](O)Cc1cccc(C(F)(F)F)c1 |  | 75 | > 3.2 | 0.013 | Activity (Rattus norvegicus [7]): 66.92%; Activity (Rattus norvegicus [8]): 18.73%; Activity (Rattus norvegicus [9]): 57.7%; Activity (Rattus norvegicus [10]): 32.53%; Activity (Rattus norvegicus [11]): 34.12%; Activity (Rattus norvegicus [12]): 15.34%; Activity (Rattus norvegicus [13]): 21.93%; half-life [14]: 25.8 min; half-life [15]: 12 min; Activity (Rattus norvegicus [16]): 23.7%; clearance [17]: 4.26 L/h/kg; half-life [18]: 25.2 min; bioavailability [19]: 17%; Activity (Rattus norvegicus [20]): 124.19%; Vdss (Rattus norvegicus [21]): 0.46 L/kg; Activity (Rattus norvegicus [22]): 29.78% |
| O=C(O)CCCCCCN1C(=O)CC[C@@H]1CC[C@@H](O)Cc1cccc(-c2ccccc2)c1 | 0.337 | 101 | > 3.2 | 0.195 |  |
| O=C(O)c1ccc(CCCN2C(=O)CC[C@@H]2CCC(O)Cc2cccc(F)c2)s1 (stereo not given in full) | 0.017 | 97 | 0.64 | 0.0024 |  |
| CCc1ccc(CC(O)CC[C@H]2CCC(=O)N2CCCc2ccc(C(=O)O)s2)cc1 (stereo not given in full) | 0.14 | 82 | 1.2 | 0.275 |  |
| O=C(O)c1ccc(CCCN2C(=O)CCC2CCC(O)Cc2cccc(Oc3ccccc3)c2)cc1 (stereo not given) | 0.22 |  | > 3.2 |  |  |
| O=C(O)c1ccc(CCCN2C(=O)CC[C@@H]2CCC(O)Cc2cccc(-c3ccccc3)c2)s1 (stereo not given in full) | 0.05 | 95 | 0.135 | 0.203 | IC50 [5]: 18.6 µM; IC50 [6]: 20 µM |
| O=C(O)c1ccc(CCCN2C(=O)CC[C@@H]2CCC(O)Cc2ccc(Cl)cc2)s1 (stereo not given in full) | 0.08 | 90 | 0.086 | 0.04 | IC50 [5]: > 3.2 µM; IC50 [6]: > 3.2 µM |
| O=C(O)CCCCCCN1C(=O)CC[C@@H]1CCC(O)Cc1ccccc1 (stereo not given in full) | 0.054 | 114 | > 3.2 | 0.0325 | half-life [14]: 21 min; IC50 [5]: > 3.2 µM; half-life [15]: 6 min; clearance [17]: 6.06 L/h/kg; half-life [18]: 27 min; bioavailability [19]: 21%; Vdss (Rattus norvegicus [21]): 0.4 L/kg; IC50 [6]: > 3.2 µM |
| O=C(O)c1ccc(CCCN2C(=O)CCC2CCC(O)Cc2cccc(F)c2)cc1 (stereo not given) | 0.126 |  | > 3.2 |  |  |
| O=C(O)c1ccc(CCCN2C(=O)CC[C@@H]2CCC(O)Cc2ccc3ccccc3c2)s1 (stereo not given in full) | 0.065 | 73 | > 3.2 | 0.5 |  |
| COCCc1cccc(C[C@H](O)CC[C@H]2CCC(=O)N2CCCCCCC(=O)O)c1 | 0.21 | 82 | > 3.2 | 0.092 |  |
| O=C(O)c1ccc(CCCN2C(=O)CCC2CCC(O)Cc2ccccc2)cc1 (stereo not given) | 0.25 |  | > 3.2 |  | IC50 [5]: > 3.2 µM; IC50 [6]: > 3.2 µM |
| O=C(O)c1ccc(CCCN2C(=O)CCC2CCC(O)Cc2ccc(F)cc2)cc1 (stereo not given) | 2.77 |  | > 3.2 |  | IC50 [5]: > 3.2 µM; IC50 [6]: > 3.2 µM |
| O=C(O)c1ccc(CCCN2C(=O)CC[C@@H]2CC[C@@H](O)Cc2cccc(C(F)(F)F)c2)s1 |  | 102 | 0.483 |  | half-life [14]: 18 min; half-life [15]: 12 min; clearance [17]: 4.2 L/h/kg; half-life [18]: 52.2 min; bioavailability [19]: 1%; Vdss (Rattus norvegicus [21]): 0.49 L/kg |
| COCc1cccc(C[C@H](O)CC[C@H]2CCC(=O)N2CCCCCCC(=O)O)c1 | 0.062 | 89 | > 3.2 | 0.018 | IC50 [5]: > 3.2 µM; IC50 [6]: > 2 µM |
| O=C(O)c1ccc(CCCN2C(=O)CCC2CCC(O)Cc2cccc(-c3ccccc3)c2)cc1 (stereo not given) | 0.047 | 97 | > 3.2 | 0.44 |  |
